Source: patent publication US8410065B2, “Macrolides and their use” (Basilea Pharmaceutica AG, priority 2008, dated 2013)

System: human PDE4
Assay: PDE4 inhibition, in vitro enzymatic IMAP FP assay
Type: biochemical
Conditions: PDE4 partially purified from undifferentiated human monocytic cells (U-937); fluorescently labeled cAMP substrate; 90 minutes at room temperature; fluorescence polarization
Description: PDE4 specifically hydrolyzes cAMP and releases the product AMP. The potency of PDE inhibition by said agents is determined in an in vitro enzymatic assay. The assay is commercially available (IMAP™ FP assay Molecular Devices Corp. (MDS)) and is optimized for the use of human PDE4. Fluorescently labeled cAMP is hydrolyzed by PDE4 and in a second step, binding of labeled product to a large binding partner allowed product detection by fluorescence polarization (FP) measurements.
PDE4 is partially purified from undifferentiated human monocytic cells (U-937) according to Thorpy et al. 1992 (J. Pharmacol. Exp. Ther. 263: 1195). […] In addition, PDE4 preparations are validated by inhibition studies with PDE4-specific and unspecific PDE inhibitors.
Stock solutions of test compounds are made in DMSO and diluted in assay buffer (10 mM Tris-HCl, 10 mM MgCl2, 0.1% BSA 0.05% NaN3, pH 7.2) to the desired concentrations. The solutions used in the assay contained test compound in assay buffer with 2% DMSO.
10 μl of substrate (at a concentration recommended by the manufacturer) are mixed with 5 μl of appropriately diluted PDE and 5 μl of test compound solution. 5 μl of reaction buffer with 2% DMSO are used for control reactions. […] After incubation for 90 minutes at room temperature, 60 μl of binding reagent are added as specified by the manufacturer. Binding is allowed to proceed for 30 minutes and fluorescence polarization is measured. Dose dependence of PDE inhibition is measured by assaying dilution series of test compounds in duplicates. IC50 values are determined from the measured activities by curve fitting.

SMILES	IC50 [nM]
CC[C@H]1OC(=O)[C@H](C)[C@@H](O)[C@H](C)[C@@H](O[C@@H]2O[C@H](C)C=C[C@H]2O)[C@](C)(OC)C[C@@H](C)C(=O)[C@H](C)[C@H]2[C@H](SCCn3cnc4c(N)ncnc43)C(=O)O[C@@]21C (stereo in doubt) [Example 1]	4800
CC[C@H]1OC(=O)[C@H](C)[C@@H](O[C@H]2C[C@@](C)(OC)[C@@H](O)[C@H](C)O2)[C@H](C)[C@@H](O[C@@H]2O[C@H](C)C[C@H](N(C)CC(C)C)[C@H]2O)[C@](C)(OC)C[C@@H](C)C(=O)[C@H](C)[C@H]2[C@H](SCCn3cnc4c(N)ncnc43)C(=O)O[C@@]21C (stereo in doubt) [Example 2]	2800
CC[C@H]1OC(=O)[C@H](C)[C@@H](O[C@H]2C[C@@](C)(OC)[C@@H](O)[C@H](C)O2)[C@H](C)[C@@H](O[C@@H]2O[C@H](C)C[C@H](N(C)CC(C)C)[C@H]2O)[C@](C)(OC)C[C@@H](C)C(=O)[C@H](C)[C@H]2[C@H](SCCN(C(=O)c3ccncc3)c3ccc(OC)c(OC4CCCC4)c3)C(=O)O[C@@]21C (stereo in doubt) [Example 3]	13600
CC[C@H]1OC(=O)[C@H](C)[C@@H](O[C@H]2C[C@@](C)(OC)[C@@H](O)[C@H](C)O2)[C@H](C)[C@@H](O[C@@H]2O[C@H](C)C[C@@H](OC)[C@@H]2N(C)C)[C@](C)(OC)C[C@@H](C)C(=O)[C@H](C)[C@H]2[C@H](SCCn3cnc4c(N)ncc(C(=O)Nc5c(Cl)cncc5Cl)c43)C(=O)O[C@@]21C (stereo in doubt) [Example 5]	110
CC[C@H]1OC(=O)[C@H](C)[C@@H](O[C@H]2C[C@@](C)(OC)[C@@H](O)[C@H](C)O2)[C@H](C)[C@@H](O[C@@H]2O[C@H](C)C[C@@H](OC)[C@@H]2N(C)C)[C@](C)(OC)C[C@@H](C)C(=O)[C@H](C)[C@H]2[C@H](SCCN(Cc3ccncc3)c3ccc(OC)c(OC4CCCC4)c3)C(=O)O[C@@]21C (stereo in doubt) [Example 6]	1400
CC[C@H]1OC(=O)[C@H](C)[C@@H](O[C@H]2C[C@@](C)(OC)[C@@H](O)[C@H](C)O2)[C@H](C)[C@@H](O[C@@H]2O[C@H](C)C[C@@H](OC)[C@@H]2N(C)C)[C@](C)(OC)C[C@@H](C)C(=O)[C@H](C)[C@H]2[C@H](SCCN(Cc3c(Cl)cncc3Cl)c3ccc(OC)c(OC4CCCC4)c3)C(=O)O[C@@]21C (stereo in doubt) [Example 7]	140
CC[C@H]1OC(=O)[C@H](C)[C@@H](O)[C@H](C)[C@@H](O[C@@H]2O[C@H](C)C[C@@H](OC)[C@@H]2N(C)C)[C@](C)(OC)C[C@@H](C)C(=O)[C@H](C)[C@H]2[C@H](SCCN(Cc3c(Cl)cncc3Cl)c3ccc(OC)c(OC4CCCC4)c3)C(=O)O[C@@]21C (stereo in doubt) [Example 8]	220
CC[C@H]1OC(=O)[C@H](C)[C@@H](O)[C@H](C)[C@@H](O[C@@H]2O[C@H](C)C[C@H](N(C)C)[C@H]2OC)[C@](C)(OC)C[C@@H](C)C(=O)[C@H](C)[C@H]2[C@H](SCCN(Cc3c(Cl)cncc3Cl)c3ccc(OC)c(OC4CCCC4)c3)C(=O)O[C@@]21C (stereo in doubt) [Example 9]	300
CC[C@H]1OC(=O)[C@H](C)[C@@H](O)[C@H](C)[C@@H](O[C@@H]2O[C@H](C)C[C@@H](N3CCOCC3)[C@@H]2N(C)C)[C@](C)(OC)C[C@@H](C)C(=O)[C@H](C)[C@H]2[C@H](SCCN(Cc3c(Cl)cncc3Cl)c3ccc(OC)c(OC4CCCC4)c3)C(=O)O[C@@]21C (stereo in doubt) [Example 12]	220
CC[C@H]1OC(=O)[C@H](C)[C@@H](O[C@H]2C[C@@](C)(OC)[C@@H](O)[C@H](C)O2)[C@H](C)[C@@H](O[C@@H]2O[C@H](C)C[C@H](N(C)C(C)=O)[C@H]2O)[C@](C)(OC)C[C@@H](C)C(=O)[C@H](C)[C@H]2[C@H](SCCOc3cc(C(=O)Nc4c(Cl)cncc4Cl)ccc3OC)C(=O)O[C@@]21C (stereo in doubt) [Example 14]	2.7
CC[C@H]1OC(=O)[C@H](C)[C@@H](O[C@H]2C[C@@](C)(OC)[C@@H](O)[C@H](C)O2)[C@H](C)[C@@H](O[C@@H]2O[C@H](C)C[C@H](N(C)C(=O)N3CCOCC3)[C@H]2O)[C@](C)(OC)C[C@@H](C)C(=O)[C@H](C)[C@H]2[C@H](SCCCOc3cc(C(=O)Nc4c(Cl)cncc4Cl)ccc3OC)C(=O)O[C@@]21C (stereo in doubt) [Example 16]	220
CC[C@H]1OC(=O)[C@H](C)[C@@H](O[C@H]2C[C@@](C)(OC)[C@@H](O)[C@H](C)O2)[C@H](C)[C@@H](O[C@@H]2O[C@H](C)C[C@H](N(C)C(C)=O)[C@H]2O)[C@](C)(OC)C[C@@H](C)C(=O)[C@H](C)[C@H]2[C@H](SCCN(Cc3c(Cl)cncc3Cl)c3ccc(OC)c(OC4CCCC4)c3)C(=O)O[C@@]21C [Example 10]	31
